Patent publication US9725482B2, “Pentacyclic triterpenoid compound with modified structure and preparation method and use thereof” (Suzhou Botany Biomedicals Co., Ltd, priority 2013, dated 2017)

What was measured:
HaCat keratinocytes = assay: In vitro inhibition of growth of skin keratinocyte (CCK-8); assay type: cell-based; conditions: 24 hours; for concentration that completely inhibits the growth of the skin keratinocyte: HaCat cells, CCK-8
Experimental: HaCat keratinocytes (purchased from ATCC) in a logarithmic growth phase were inoculated in a 96-well plate, with 2×10^4 cells for each well. The compound of formula (II) and AKBA were added respectively in a concentration gradient. The total volume was […]. DMSO was added in the control group to a final concentration of 0.25%. […] culture medium was added into the blank control well. Each group had three parallel experiments. After cultured in a cell incubator for 24 hours, […] CCK-8 solution was added into each well. Then the plate was placed in the incubator for incubation at 37° C. and 5% CO2 for 4 hours. OD value was measured at 450 nm by a microplate reader. The inhibition rate was calculated by the following equation: Inhibition Rate=[1−(OD of the test group/OD of the control group)]×100%.

mouse psoriasis model [1] = assay: Treatment of mice psoriasis induced by imiquimod with gel formulation; assay type: in vivo, Balb/c mice; conditions: 0.5% (w/w) gel, day 8 to day 14, topical
Experimental: (§1) Thirty age- and sex-matched Balb/c mice, 10 in the control group using a blank gel, 10 in the treatment group using AKBA gel and 10 in the treatment group using CKBA gel, were coated on their backs by imiquimod (62.5 mg/day for each mouse) for 7 days to establish mouse psoriasis model. At day 8 to day 14, the blank gel (Control), AKBA gel (0.5% (w/w)) and CKBA gel (0.5% (w/w)) were administered to the mice for treatment, respectively. Imiquimod was administered every two days to the back of the mice to maintain the skin inflammation. At day 15 pictures were took for the skin lesions of the psoriasis mice. Then the mice were sacrificed by cervical vertebra luxation and the skin from the skin lesion was cut and fixed by 4% paraformaldehyde to prepare HE pathological sections.
as §1, with “(0.2%” for “(0.5%”

5-LOX = biological target: T1, 5-LOX (Homo sapiens, UniProt P09917); conditions: Sailer et al., British J Pharmacology, 1996; cited from earlier work
T1 sequence (P09917 1-674): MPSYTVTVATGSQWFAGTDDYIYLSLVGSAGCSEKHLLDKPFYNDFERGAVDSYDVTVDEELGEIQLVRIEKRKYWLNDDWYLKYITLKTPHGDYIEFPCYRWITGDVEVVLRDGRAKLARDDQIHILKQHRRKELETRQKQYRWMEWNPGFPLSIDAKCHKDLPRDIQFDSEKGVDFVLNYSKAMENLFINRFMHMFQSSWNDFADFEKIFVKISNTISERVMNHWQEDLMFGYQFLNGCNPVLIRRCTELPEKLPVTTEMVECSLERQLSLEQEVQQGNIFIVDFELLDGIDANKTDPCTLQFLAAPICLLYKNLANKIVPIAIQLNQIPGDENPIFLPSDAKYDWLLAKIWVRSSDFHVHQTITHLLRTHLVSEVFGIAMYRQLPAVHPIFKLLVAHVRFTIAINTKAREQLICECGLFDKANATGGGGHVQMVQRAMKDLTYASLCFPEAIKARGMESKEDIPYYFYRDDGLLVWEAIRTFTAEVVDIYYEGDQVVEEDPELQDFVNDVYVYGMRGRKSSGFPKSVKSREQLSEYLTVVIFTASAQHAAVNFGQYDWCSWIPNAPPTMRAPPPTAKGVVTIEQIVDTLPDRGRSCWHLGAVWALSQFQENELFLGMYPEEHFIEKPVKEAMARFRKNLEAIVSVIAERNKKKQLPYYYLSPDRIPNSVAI

mouse psoriasis model [2] = assay: Treatment of mice psoriasis induced by imiquimod with gel formulation; assay type: in vivo, Balb/c mice; conditions: 0.2% (w/w) gel, day 8 to day 14, topical
TH1 cells = assay: Inhibition of in vitro differentiation of TH1 cells from naive T cells (flow cytometry); assay type: cell-based, C57BL/6J mice; conditions: 2 μm, 4 days, IFN-γ staining
Experimental: (§2) C57BL/6J mice of 6-8 week old were sacrificed by cervical vertebra luxation. The spleen was taken and ground. The cells were sieved to prepare a single-cell suspension. After dyeing on their surfaces by CD4-APC, CD25 PerCP-Cy 5.5 and CD62L-FITC, the cells were sorted by BD FACSAria III flow cytometry. The naïve T cells, i.e., CD4^+CD25^−CD62L^hi+ T cells, were used for induced differentiation of TH1, TH17 and Treg. A gradient of concentration of CKBA was added for incubation. Cells were collected after 4 days and then further cultured in incubator at 37° C. and 5% CO2 for 4-6 hours in 1640 complete culture medium supplemented with 750 ng/ml ionomycin and 50 ng/ml phorbol myristate acetate (PMA) and GolgiPlug. After suspension with PBS, the surface of the cell was stained by CD4-APC. After staining at 4° C. for 30 minutes, the cells were re-suspended once and then broke for 20 minutes at 4[…]. The cells were washed again by lotion and then stained by IFN-γ, IL-17A and FoxP3.

TH17 cells = assay: Inhibition of in vitro differentiation of TH17 cells from naive T cells (flow cytometry); assay type: cell-based, C57BL/6J mice; conditions: 2 μm, 4 days, IL-17A staining
Experimental: as §2

Treg = assay: In vitro differentiation of Treg from naive T cells (flow cytometry); assay type: cell-based, C57BL/6J mice; conditions: 2 μm, 4 days, FoxP3 staining
Experimental: as §2

Row | SMILES | concentration that completely inhibits the growth of the skin keratinocyte (HaCat keratinocytes) [µM] | mice psoriasis phenotype (mouse psoriasis model [1]) | number of the inflammatory cells in dermis (mouse psoriasis model [1]) | skin thickness (mouse psoriasis model [1]) | 5-LOX inhibitory activity among boswellic acids (5-LOX) | mice psoriasis (mouse psoriasis model [2]) | number of the inflammatory cells in dermis (mouse psoriasis model [2]) | skin thickness (mouse psoriasis model [2]) | inhibiting division and proliferation of HaCat cells as compared to AKBA (HaCat keratinocytes; concentration gradient) | treatment of mice psoriasis as compared to AKBA (mouse psoriasis model [1]) | inhibition of in vitro differentiation of TH1 (TH1 cells) | inhibition of in vitro differentiation of TH17 (TH17 cells) | inhibition on differentiation of Treg (Treg)
1 | CC(=O)O[C@@H]1CC[C@@]2(C)C(CC[C@]3(C)C2C(=O)C=C2C4[C@@H](C)[C@H](C)CC[C@]4(C)CC[C@]23C)[C@@]1(C)C(=O)O (stereo partly drawn) [AKBA, Acetyl-11-keto-β-boswellic acid, reference compound] | 100 | effectively relieve | significantly reduce | significantly reduce | the most obvious 5-LOX inhibitory activity |  |  |  |  |  |  |  | 
2 | C[C@H]1[C@H](C)CC[C@]2(C)CC[C@]3(C)C(=CC(=O)[C@@H]4[C@@]5(C)CC[C@@H](OC(=O)C6CCCCC6)[C@](C)(C(=O)O)[C@@H]5CC[C@]43C)[C@H]12 [CKBA, 3-o-α-cyclohexanoyl-11-keto-β-boswellic acid] | 20 | effectively relieve | significantly reduce | significantly reduce |  | effectively cure | significantly reduce | significantly reduce | more effective | more effectively treat | very effectively inhibit | very effectively inhibit | no inhibition
